Assay: Anticancer human tumor 997537-175-T-J1-PDC patient-derived colon adenocarcinoma cell line growth inhibition [POLQ]
Details: 997537-175-T-J1-PDC complex spheroid viability, combination with POLQ inhibitors; for IC50: curve of first compound; for viability, T/C: stronger effect = lower value
Procedure: Multicellular complex tumor spheroid response to Polymerase (POL) inhibitors (novobiocin, ART-558, RP6685) in combination with a variety of drugs and investigational agents in selected tumor cell lines
The POL inhibitors (novobiocin, ART-558, and RP6685) were evaluated both individually and in combination with standard of care and investigational anticancer small molecules within a complex spheroid model of solid tumors. . Complex spheroids include a stromal component modeled by human endothelial cells (HUVEC) and fibroblasts modeled by human mesenchymal stem cells (MSCs). The concentration ranges selected for each drug and investigational agent were based upon clinically achievable concentrations if the clinical Cmax of the agent was known.
Compounds. The drugs and investigational agents: novobiocin (NSC847541), ART-558 (NSC835418), RP-6685 (NSC848927), peposertib (NSC802822), ceralasertib (NSC780249), elimusertib (NSC800525), camonsertib (NSC841442), AZD-1390 (NSC803789), olaparib (NSC753686), talazoparib (NSC767125), rucaparib (NSC756644), sotorasib (NSC818433), MRTX-1133 (NSC836407), SN-38 (NSC673596), topotecan (NSC609699), epotoside (NSC141540), doxorubicin (NSC123127), gemcitabine (NSC613327), 5-fluorouracil (NSC19893), paclitaxel (NSC125973), vemurafenib (NSC761431), MSA-2 (NSC828583), SN-011 (NSC837082), adavosertib (NSC754352), prexasertib (NSC758257), carboplatin (NSC241240) and oxaliplatin (NSC266046), were obtained from the National Cancer Institute (NCI) Developmental Therapeutics Program Chemical Repository (21). The FDA-approved anticancer drug set is available from the Developmental Therapeutics Program at https://dtp.cancer.gov/organization/dscb/obtaining/. […] The stock solutions were prepared in dimethyl sulfoxide (DMSO, Sigma-Aldrich, St. Louis, MO, cat. D2650), except for the platinum compounds which were prepared in saline (Quality Biological, Gaithersburg, MD, cat. 114-055-101), at 800-fold the tested concentration and stored at -70 degrees C prior to their use. All drugs and investigational agents were tested over a range starting from a high concentration at or near the clinical Cmax and decreasing in half-log increments. If the clinical Cmax for an agent had not been determined, the highest concentration tested was 10 microM, except for SN-38, which was tested at a high concentration of 1 microM.
Cell Culture. All cells were maintained in an incubator at 37 degrees C and 5% CO2 with 95% humidity. The PDC lines were cultured according to standard operating procedures established by the NCI PDMR (https://pdmr.cancer.gov). Table 3 of the manuscript, lists the cell lines along with the number of the three cell types plated to form the mct-spheroids and media for tumor cell growth. After thawing, all PDC lines, except 997537-175-T-J1-PDC and 415267-285-R-J2-PDC, were cultured in Matrigel-coated flasks prepared with a working solution of 1X Ham's F-12 nutrient mix, without supplementation (Thermo Fisher Scientific, cat. 11765054), 100 U/mL penicillin-streptomycin (Thermo Fisher Scientific, cat. 15140122), and 2.5% Matrigel (Corning Inc., Corning, NY, cat. 354248) for the first three passages. The two PDC lines 997537-175-T-J1-PDC and 415267-285-R-J2-PDC were cultured on uncoated flasks. The 857933-349-R-J2-PDC line was cultured in 6C/Colon 1B media containing advanced DMEM/F-12 (Thermo Fisher Scientific, cat. 12634028), 10 mM HEPES (Thermo Fisher Scientific, cat. 15630080), 1X GlutaMAX supplement (Thermo Fisher Scientific, cat. 35050061), 0.1 mg/mL primocin (InvivoGen, San Diego, CA, cat. ant-pm-2), 10% defined fetal bovine serum, heat inactivated (HyClone Laboratories Inc., Logan, UT, cat. SH30070.03HI), 50% L-WRN conditioned media (ATCC, cat. CRL-3276), 1.25 mM N-Acetyl-L-cysteine (Sigma-Aldrich, cat. A9165), 10 mM nicotinamide (Sigma-Aldrich, cat. N0636), 1X B-27 supplement (Thermo Fisher Scientific, cat. 17504044), 1X N-2 supplement (Thermo Fisher Scientific, cat. […]

[1] = second compound 0.0316 µM, first compound 0.0316 µM
[2] = second compound 0.0316 µM, first compound 0.1 µM
[3] = second compound 0.0316 µM, first compound 0.316 µM
[4] = second compound 0.0316 µM, first compound 1 µM
[5] = second compound 0.0316 µM, first compound 3.16 µM
[6] = second compound 0.0316 µM, first compound 10 µM
[7] = second compound 0.1 µM, first compound 0.0316 µM
[8] = second compound 0.1 µM, first compound 0.1 µM
[9] = second compound 0.1 µM, first compound 0.316 µM
[10] = second compound 0.1 µM, first compound 1 µM
[11] = second compound 0.1 µM, first compound 3.16 µM
[12] = second compound 0.1 µM, first compound 10 µM
[13] = second compound 0.316 µM, first compound 0.0316 µM
[14] = second compound 0.316 µM, first compound 0.1 µM
[15] = second compound 0.316 µM, first compound 0.316 µM
[16] = second compound 0.316 µM, first compound 1 µM
[17] = second compound 0.316 µM, first compound 3.16 µM
[18] = second compound 0.316 µM, first compound 10 µM
[19] = second compound 1 µM, first compound 0.0316 µM
[20] = second compound 1 µM, first compound 0.1 µM
[21] = second compound 1 µM, first compound 0.316 µM
[22] = second compound 1 µM, first compound 1 µM
[23] = second compound 1 µM, first compound 3.16 µM
[24] = second compound 1 µM, first compound 10 µM
[25] = second compound 3.16 µM, first compound 0.0316 µM
[26] = second compound 3.16 µM, first compound 0.1 µM
[27] = second compound 3.16 µM, first compound 0.316 µM
[28] = second compound 3.16 µM, first compound 1 µM
[29] = second compound 3.16 µM, first compound 3.16 µM
[30] = second compound 3.16 µM, first compound 10 µM
[31] = second compound 10 µM, first compound 0.0316 µM
[32] = second compound 10 µM, first compound 0.1 µM
[33] = second compound 10 µM, first compound 0.316 µM
[34] = second compound 10 µM, first compound 1 µM
[35] = second compound 10 µM, first compound 3.16 µM
[36] = second compound 10 µM, first compound 10 µM
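Further: luminescence signal used as a surrogate for viable cells; spheroids exposed to drugs for seven days before readout.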

In the case of `COc1cccc2c1C(=O)c1c(O)c3c(c(O)c1C2=O)CC(O)(C(=O)CO)CC3OC1CC(N)C(O)C(C)O1` (centres undefined) + COC1C(OC(N)=O)C(O)C(Oc2ccc3c(O)c(NC(=O)c4ccc(O)c(CC=C(C)C)c4)c(=O)oc3c2C)OC1(C)C, the IC50 (second compound 0.0316 µM) is reported as 2490 nM, the IC50 (second compound 0.1 µM) is reported as 1660 nM and the IC50 (second compound 0.316 µM) is reported as 2220 nM. The IC50 (second compound 1 µM) was 3230 nM, the IC50 (second compound 3.16 µM) was 2030 nM and the IC50 (second compound 10 µM) was 2770 nM. It also gave a viability, T/C [1] of 114%, a viability, T/C [2] of 100% and a viability, T/C [3] of 98%. The viability, T/C [4] was 84.8%, the viability, T/C [5] was 40.2% and the viability, T/C [6] was 7.93%. For the same compound, the viability, T/C [7] was 102%, the viability, T/C [8] was 114% and the viability, T/C [9] was 95.6%. For the same compound, the viability, T/C [10] was 75.4%, the viability, T/C [11] was 18.1% and the viability, T/C [12] was 10.4%. For the same compound, the viability, T/C [13] was 101%, the viability, T/C [14] was 99.8% and the viability, T/C [15] was 102%. The viability, T/C [16] was 96.6%, the viability, T/C [17] was 29.2% and the viability, T/C [18] was 8.56%. For the same compound, the viability, T/C [19] was 94.7%, the viability, T/C [20] was 89.8% and the viability, T/C [21] was 88%. It also gave a viability, T/C [22] of 95.1%, a viability, T/C [23] of 50.8% and a viability, T/C [24] of 9.76%. It also gave a viability, T/C [25] of 106%, a viability, T/C [26] of 119% and a viability, T/C [27] of 75.4%. The viability, T/C [28] was 77.6%, the viability, T/C [29] was 34.8% and the viability, T/C [30] was 13.1%. For the same compound, the viability, T/C [31] was 96.5%, the viability, T/C [32] was 99.3% and the viability, T/C [33] was 107%. The viability, T/C [34] was 97.4%, the viability, T/C [35] was 43.9% and the viability, T/C [36] was 7.86%.

Compound `COc1cccc2c1C(=O)c1c(O)c3c(c(O)c1C2=O)CC(O)(C(=O)CO)CC3OC1CC(N)C(O)C(C)O1` (centres undefined) + Nc1ccc(C#CCN(C(=O)Cc2ncc(C(F)(F)F)cc2C(F)(F)F)c2ccc(F)cc2)nn1 has an IC50 (second compound 0.0316 µM) of 3200 nM, an IC50 (second compound 0.1 µM) of 1920 nM and an IC50 (second compound 0.316 µM) of 3540 nM. It also gave an IC50 (second compound 1 µM) of 2120 nM, an IC50 (second compound 3.16 µM) of 2850 nM and an IC50 (second compound 10 µM) of 2140 nM. The viability, T/C [1] was 102%, the viability, T/C [2] was 97.5% and the viability, T/C [3] was 89.1%. For the same compound, the viability, T/C [4] was 93.5%, the viability, T/C [5] was 50.4% and the viability, T/C [6] was 12.2%. The viability, T/C [7] was 99.4%, the viability, T/C [8] was 114% and the viability, T/C [9] was 99.9%. For the same compound, the viability, T/C [10] was 70.6%, the viability, T/C [11] was 34.4% and the viability, T/C [12] was 7.13%. It also gave a viability, T/C [13] of 110%, a viability, T/C [14] of 109% and a viability, T/C [15] of 98.8%. For the same compound, the viability, T/C [16] was 87.7%, the viability, T/C [17] was 53.2% and the viability, T/C [18] was 13.9%. It also gave a viability, T/C [19] of 94.1%, a viability, T/C [20] of 109% and a viability, T/C [21] of 81.8%. For the same compound, the viability, T/C [22] was 79.5%, the viability, T/C [23] was 34.8% and the viability, T/C [24] was 10.2%. The viability, T/C [25] was 94.4%, the viability, T/C [26] was 107% and the viability, T/C [27] was 72.6%. The viability, T/C [28] was 78.8%, the viability, T/C [29] was 46.6% and the viability, T/C [30] was 8.26%. It also gave a viability, T/C [31] of 94.7%, a viability, T/C [32] of 97.9% and a viability, T/C [33] of 91.4%. It also gave a viability, T/C [34] of 80%, a viability, T/C [35] of 34.8% and a viability, T/C [36] of 10.1%.
